Data set [1] is described as follows: Tablet disintegration time, Automatic Disintegration Tester. Conditions: Table 2A; Long blend; Oval tooling; distilled water at 37° C. It is filed as physicochemical. The procedure: The disintegration time was determined in distilled water at 37° C. using an Automatic Disintegration Tester (Model ZT72, Erweka USA Inc, Milford, Conn.) for the long blend tablets. Even with extensive blending times with magnesium stearate, reasonably short disintegration times of 15 and 20 seconds were obtained.

The nature of data set [2]: Tablet friability, Vanderkamp Friabulator (100 rotations/4 minutes). Format: physicochemical. Conditions: Table 4D; high drug loading; diluent DCP, dihyd.; modified capsule shape.

One compound from patent US20030228357A1, “Dry granulated formulations of azithromycin” (Pfizer Inc., priority 2002, published 2003) can be followed below.

Turning to `CC[C@H]1OC(=O)[C@H](C)[C@@H](O[C@H]2C[C@@](C)(OC)[C@@H](O)[C@H](C)O2)[C@H](C)[C@@H](O[C@@H]2O[C@H](C)C[C@H](N(C)C)[C@H]2O)[C@](C)(O)C[C@@H](C)CN(C)[C@H](C)[C@@H](O)[C@]1(C)O` [Form A, azithromycin dihydrate, reference compound], the “Mean disintegration Time” value in data set [1] was 15 s. The Friability in data set [2] is recorded as 0.49%.
